The target in test [1] is T1, human full length PIK3KA Wild-type (p110α/p85α complex) (Homo sapiens, UniProt P42336).
T1 construct: Recombinant, catalytically active human full length PIK3KA Wild-type and H1047R mutant were purchased; 6xHis (N); purchased EMD Millipore Sigma 14-602M
Nature of the test: PI3K-Alpha Kinase (PIK3CA) biochemical activity, wild-type (ADP-Glo). The conditions noted are these: Soy PI lipid substrate, 20 uM ATP. Summed up:
(§1)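 ADP formation, measured by ADP-Glo luminescence after reaction to about 10% ATP conversion at 27° C., gives 10-point 4-parameter IC50 curves normalized to no-enzyme and DMSO controls. Lipid substrate was PIP2diC8 or Soy PI at 50 uM, with 20 uM ATP. WT or H1047R p110α/p85α complex (1-5 nM) was preincubated 1 h with compound.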
Background: ADP-Glo first removes unused ATP, then detects ADP through luciferase.

The target in test [2] is T2, human full length PIK3KA H1047R mutant (p110α/p85α complex) (Homo sapiens, UniProt P42336, H1047R).
T2 construct: Recombinant, catalytically active human full length PIK3KA Wild-type and H1047R mutant were purchased; 6xHis (N); purchased EMD Millipore Sigma 14-792M
T2 sequence (P42336 whole entry H1047R): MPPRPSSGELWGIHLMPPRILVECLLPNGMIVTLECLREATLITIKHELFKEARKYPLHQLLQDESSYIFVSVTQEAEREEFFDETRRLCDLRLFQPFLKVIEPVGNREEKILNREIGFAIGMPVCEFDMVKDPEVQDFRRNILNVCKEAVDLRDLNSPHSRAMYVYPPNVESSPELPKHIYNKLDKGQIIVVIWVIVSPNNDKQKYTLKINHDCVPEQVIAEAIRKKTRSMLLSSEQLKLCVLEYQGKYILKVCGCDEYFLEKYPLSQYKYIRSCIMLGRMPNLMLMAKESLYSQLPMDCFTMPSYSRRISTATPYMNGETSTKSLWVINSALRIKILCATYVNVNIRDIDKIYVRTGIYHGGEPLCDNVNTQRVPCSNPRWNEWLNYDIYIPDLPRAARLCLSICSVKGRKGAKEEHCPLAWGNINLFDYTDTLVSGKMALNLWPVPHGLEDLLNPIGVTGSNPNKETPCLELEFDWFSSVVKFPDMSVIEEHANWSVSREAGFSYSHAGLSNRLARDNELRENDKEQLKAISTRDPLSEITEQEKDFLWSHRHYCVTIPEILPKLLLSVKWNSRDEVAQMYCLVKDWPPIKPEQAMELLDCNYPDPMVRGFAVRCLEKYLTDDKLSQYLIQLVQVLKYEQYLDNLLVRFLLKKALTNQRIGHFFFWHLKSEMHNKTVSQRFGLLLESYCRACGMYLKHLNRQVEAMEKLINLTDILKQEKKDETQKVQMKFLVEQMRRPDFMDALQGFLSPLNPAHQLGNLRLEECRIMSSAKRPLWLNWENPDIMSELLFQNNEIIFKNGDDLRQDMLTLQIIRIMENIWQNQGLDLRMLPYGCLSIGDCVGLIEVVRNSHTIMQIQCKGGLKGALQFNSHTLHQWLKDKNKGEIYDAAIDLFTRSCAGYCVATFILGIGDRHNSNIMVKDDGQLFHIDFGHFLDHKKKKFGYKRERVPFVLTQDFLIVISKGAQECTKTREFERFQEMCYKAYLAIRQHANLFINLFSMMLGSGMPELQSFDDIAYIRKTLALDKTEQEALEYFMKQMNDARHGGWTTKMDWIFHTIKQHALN
T2 sequence (P27986 whole entry partner): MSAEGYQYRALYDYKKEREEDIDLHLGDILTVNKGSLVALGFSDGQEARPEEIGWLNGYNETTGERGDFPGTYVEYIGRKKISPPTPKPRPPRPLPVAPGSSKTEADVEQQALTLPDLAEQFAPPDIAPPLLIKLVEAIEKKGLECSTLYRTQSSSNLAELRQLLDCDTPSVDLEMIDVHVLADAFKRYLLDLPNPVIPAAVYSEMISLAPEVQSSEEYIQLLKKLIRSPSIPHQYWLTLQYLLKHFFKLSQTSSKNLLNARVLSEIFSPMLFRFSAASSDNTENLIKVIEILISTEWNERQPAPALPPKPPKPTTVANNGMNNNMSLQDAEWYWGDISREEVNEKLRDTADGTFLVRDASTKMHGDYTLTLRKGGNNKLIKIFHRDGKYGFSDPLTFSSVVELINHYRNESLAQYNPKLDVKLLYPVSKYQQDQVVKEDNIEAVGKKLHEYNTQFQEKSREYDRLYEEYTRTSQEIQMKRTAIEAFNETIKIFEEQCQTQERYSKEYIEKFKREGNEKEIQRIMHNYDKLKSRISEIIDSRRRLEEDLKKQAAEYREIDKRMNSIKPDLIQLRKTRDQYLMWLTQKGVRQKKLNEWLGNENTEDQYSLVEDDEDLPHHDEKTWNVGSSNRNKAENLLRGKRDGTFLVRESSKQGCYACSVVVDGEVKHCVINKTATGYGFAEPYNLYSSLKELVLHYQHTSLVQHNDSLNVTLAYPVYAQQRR
Nature of the test: PI3K-Alpha Kinase (PIK3CA) biochemical activity, H1047R mutant (ADP-Glo). The conditions noted are these: Soy PI lipid substrate, 20 uM ATP. Summed up: as §1

Test [3] has as its target PI3K-α (PIK3CA) in MDA-MB-453 cells (Homo sapiens, UniProt P42336). Kind of test: PI3K-Alpha Kinase (PIK3CA) activity in vitro cell based assay (AlphaLisa SureFire). The settings on record: read-out: PI3K-α (PIK3CA) in vitro cell based assay IC50, 0% FBS, 3 hours treatment. As to the method: PI3K-Alpha Kinase (PIK3CA) Activity In Vitro Cell Based Assay and Determining IC50 Values for Inhibitors
The MDA-MB-453 (ATCC-HTB-131) cell line was obtained from the American Type Culture Collection (Manassas, Va.). Cells were maintained in Dulbecco's Modified Eagle Media (DMVEM, Gibco 11965-092) supplemented with 10% Fetal Bovine Serum, heat inactivated (FBS HI, Gibco 10082-147), 1× non-essential amino acids (NEAA, Gibco 11140-050), and 1 mM sodium pyruvate (Gibco 11360-070). Cultures were maintained in a humidified incubator at 37° C. under […].
For compound testing in 0% FBS, MDA-MB-453 cells were seeded at a density of 1.5×10^4 cells per well in white 384-well plates in 20 μl of Minimum Essential Media (MEM) assay media with 1×NEAA, 1 mM sodium pyruvate, and 1 μg/mL human insulin (Sigma I9278). Compounds dissolved in 10 mM stock solutions in DMSO were serially diluted 1:3 in DMSO to generate a 10-point dilution series and plated using an acoustic liquid handler system (Echo 550 Series Liquid Handler, Labcyte). A 5× intermediate compound dilution plate in MEM with 1×NEAA and 1 mM sodium pyruvate (150 μM starting compound concentration in 1.5% DMSO) was then prepared. Five μl of the intermediate serially diluted compounds were added to the cell plate to final concentrations ranging from […] in 0.3% DMSO. 0.3% DMSO alone was used to establish the maximum (MAX) signal and GDC-0032 at a final concentration of 1 μM was used as a reference compound for the minimum (MIN) signal. After 3 hours treatment, the medium was removed, and the cells lysed in 10 μL of 1× SureFire Lysis buffer with shaking for 10 minutes at room temperature. The Acceptor Mix (Reaction Buffer 1+Reaction Buffer 2+Activation Buffer+SureFire Ultra Acceptor Beads) was prepared by diluting Activation buffer 25-fold in combined Reaction Buffer 1 and Reaction Buffer 2. The Acceptor beads were diluted 50-fold in the combined Reaction Buffers. Five μL of Acceptor Mix was added to each well, the plate was sealed and covered with foil and incubated for 1 hour at room temperature. The Donor Mix (dilution buffer+SureFire Ultra Donor Beads) was prepared by diluting Donor Beads 50-fold in dilution buffer. Five μL of the Donor Mix was added to each well and the plate sealed and covered with foil and incubated for 1 hour at room temperature in the dark. The plates were read on a Neo2 plate reader instrument from Biotek using standard AlphaLisa settings.
Compounds were tested in duplicate and the average % inhibition at each compound concentration was used to generate a single dose response curve. The data were processed using the Genedata-Screener tool. Relative IC50 values were determined using luminescence units by calculating percent inhibition with respect to the in-plate “MIN” (GDC-0032 reference control) and “MAX” (DMSO) controls. The data was analyzed using a 4-parameter nonlinear logistic equation (four-parameter logistic concentration-response curve):
Y=bottom+[(top−bottom)/1+(X/IC50)slope]
where Y=% inhibition, X=concentration of inhibitor, bottom=minimum value of y attained by curve-fit, top=maximum value of y attained by curve-fit and slope=steepness of curve at the IC50.
% Inhibition=[(signal at X−median Min)/(median Max−median Min)]×100
IC50: concentration of compound that reduces a given response (ligand binding, enzyme response) by 50%. Relative IC50: concentration giving half the compound's maximum response.
For IC50 values shown in Table B, “A” means IC50<50 nM; “B” means IC50 ranging between 50 nM and 100 nM; “C” means IC50 ranging between 100 nM and 500 nM; “D” means IC50>500 nM.
A general note: In Alpha technology, singlet oxygen from a donor bead excites a nearby acceptor bead.

One may read the IC50 as the point on the concentration scale where inhibition reaches its midpoint.

Chain of PI3K-α (PIK3CA) in MDA-MB-453 cells (P42336 whole entry): as the sequence (P42336 whole entry H1047R) above, with R1047H counted along it
Chain of PI3K-α (PIK3CA) in MDA-MB-453 cells (P27986 2-724, further chain): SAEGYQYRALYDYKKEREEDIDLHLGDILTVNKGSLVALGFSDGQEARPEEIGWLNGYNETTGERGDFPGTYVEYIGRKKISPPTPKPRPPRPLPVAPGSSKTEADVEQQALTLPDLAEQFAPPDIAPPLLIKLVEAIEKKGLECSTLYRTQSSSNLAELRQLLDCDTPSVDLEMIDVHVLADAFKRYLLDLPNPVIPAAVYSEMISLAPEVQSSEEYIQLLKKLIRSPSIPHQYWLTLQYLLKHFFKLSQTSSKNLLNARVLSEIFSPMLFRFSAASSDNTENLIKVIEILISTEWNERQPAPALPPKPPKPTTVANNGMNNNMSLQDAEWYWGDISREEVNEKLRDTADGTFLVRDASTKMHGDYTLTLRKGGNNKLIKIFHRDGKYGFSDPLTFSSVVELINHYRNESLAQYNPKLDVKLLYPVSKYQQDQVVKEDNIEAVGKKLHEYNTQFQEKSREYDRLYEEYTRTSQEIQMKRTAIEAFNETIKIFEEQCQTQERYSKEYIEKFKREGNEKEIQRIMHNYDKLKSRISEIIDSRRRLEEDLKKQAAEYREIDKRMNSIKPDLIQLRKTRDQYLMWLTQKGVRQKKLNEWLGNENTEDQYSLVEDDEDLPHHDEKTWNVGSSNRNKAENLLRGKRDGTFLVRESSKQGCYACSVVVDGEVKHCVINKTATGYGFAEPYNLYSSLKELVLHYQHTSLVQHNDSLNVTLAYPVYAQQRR

With `Cc1cc(C(C)Nc2ccccc2C(=O)O)c2oc(-c3cnn(-c4cccc(C#N)c4)c3)c(C)c(=O)c2c1` (single isomer, unassigned) [Example 74, 2-[1-[2-[1-(3-Cyanophenyl)pyrazol-4-yl]-3,6-dimethyl-4-oxo-chromen-8-yl]ethylamino]benzoic acid, Isomer 1,2,2,2-trifluoroacetic acid], the values for the IC50 in test [1], in test [2] and in test [3] were 500 to 1000 nM, under 500 nM and under 50 nM, respectively.
The like results for `Cc1cc(C(C)Nc2ccccc2C(=O)O)c2oc(-c3cc(C)n[nH]3)cc(=O)c2c1` (single isomer, unassigned) [Example 75, 2-[1-[6-Methyl-2-(3-methyl-1H-pyrazol-5-yl)-4-oxo-chromen-8-yl]ethylamino]benzoic acid, Isomer 2,2,2,2-trifluoroacetic acid] were, in that order, 5000 to 10000 nM, under 500 nM and 50 to 100 nM.
For `COc1ccc(-n2cc(-c3cc(=O)c4cc(C)cc(C(C)Nc5ccccc5C(=O)O)c4o3)cn2)cc1` (single isomer, unassigned) [Example 79, 2-[1-[2-[1-(4-Methoxyphenyl)pyrazol-4-yl]-6-methyl-4-oxo-chromen-8-yl]ethylamino]benzoic acid, Isomer 2,2,2,2-trifluoroacetic acid], in that order: 1000 to 5000 nM, under 500 nM and 50 to 100 nM.
Turning to `Cc1cc(C(C)Nc2ccccc2C(=O)O)c2oc(-c3cnn(-c4ccccc4)c3)cc(=O)c2c1` (single isomer, unassigned) [Example 80, 2-[1-[6-Methyl-4-oxo-2-(1-phenylpyrazol-4-yl)chromen-8-yl]ethylamino]benzoic acid, Isomer 2,2,2,2-trifluoroacetic acid], the IC50 was 5000 to 10000 nM in test [1], under 500 nM in test [2] and under 50 nM in test [3].
For `COc1ccc(-n2cc(-c3cc(=O)c4cc(C)cc(C(C)Nc5ccccc5C(=O)O)c4o3)cn2)cn1` (single isomer, unassigned) [Example 81, 2-[1-[2-[1-(6-Methoxy-3-pyridyl)pyrazol-4-yl]-6-methyl-4-oxo-chromen-8-yl]ethylamino]benzoic acid, Isomer 2,2,2,2-trifluoroacetic acid], in that order: 5000 to 10000 nM, 500 to 1000 nM and 50 to 100 nM.
The like results for `Cc1cc(C(C)Nc2ccccc2C(=O)O)c2oc(-c3cnn(-c4ccc(C#N)nc4)c3)cc(=O)c2c1` (single isomer, unassigned) [Example 82, 2-[1-[2-[1-(6-Cyano-3-pyridyl)pyrazol-4-yl]-6-methyl-4-oxo-chromen-8-yl]ethylamino]benzoic acid, Isomer 2,2,2,2-trifluoroacetic acid] were, in that order, 1000 to 5000 nM, under 500 nM and 50 to 100 nM.
The like results for `Cc1cc(C(C)Nc2ccccc2C(=O)O)c2oc(-c3cnn(-c4ccc(C#N)cn4)c3)cc(=O)c2c1` (single isomer, unassigned) [Example 83, 2-[1-[2-[1-(5-Cyano-2-pyridyl)pyrazol-4-yl]-6-methyl-4-oxo-chromen-8-yl]ethylamino]benzoic acid, Isomer 2,2,2,2-trifluoroacetic acid] were, in that order, over 10000 nM, under 500 nM and 50 to 100 nM.
`Cc1cc(C(C)Nc2ccccc2C(=O)O)c2oc(-c3cnn(-c4ccc(C#N)c(F)c4)c3)cc(=O)c2c1` (single isomer, unassigned) [Example 85, 2-[1-[2-[1-(4-Cyano-3-fluoro-phenyl)pyrazol-4-yl]-6-methyl-4-oxo-chromen-8-yl]ethylamino]benzoic acid, Isomer 2,2,2,2-trifluoroacetic acid]: the IC50 in test [1] was 1000 to 5000 nM; in test [2] it was under 500 nM; in test [3] it was 100 to 500 nM.
The like results for `COc1ccc(-n2cc(-c3cc(=O)c4cc(C)cc(C(C)Nc5ccccc5C(=O)O)c4o3)cn2)cc1C#N` (single isomer, unassigned) [Example 86, 2-[1-[2-[1-(3-Cyano-4-methoxy-phenyl)pyrazol-4-yl]-6-methyl-4-oxo-chromen-8-yl]ethylamino]benzoic acid, Isomer 2,2,2,2-trifluoroacetic acid] were, in that order, 1000 to 5000 nM, under 500 nM and 100 to 500 nM.
The like results for `Cc1cc(C(C)Nc2ccccc2C(=O)O)c2oc(-c3ccc(C4(C#N)CC4)nc3)c(C)c(=O)c2c1` (single isomer, unassigned) [Example 89, 2-[1-[2-[6-(1-Cyanocyclopropyl)-3-pyridyl]-3,6-dimethyl-4-oxo-chromen-8-yl]ethylamino]benzoic acid, Isomer 1,2,2,2-trifluoroacetic acid] were, in that order, 1000 to 5000 nM, under 500 nM and under 50 nM.
Take `Cc1cc(C(C)Nc2ccc(Cl)nc2C(=O)O)c2oc(-c3ccccn3)c(C)c(=O)c2c1` (single isomer, unassigned) [Example 121, 6-Chloro-3-[1-[3,6-dimethyl-4-oxo-2-(2-pyridyl)chromen-8-yl]ethylamino]pyridine-2-carboxylic acid, Isomer 1,2,2,2-trifluoroacetic acid]: the IC50 in test [1] was 1000 to 5000 nM; in test [2], under 500 nM; in test [3], under 50 nM.
The like results for `Cc1cc(C(C)Nc2ccccc2C(=O)O)c2oc(-c3cn(-c4ccc(C#N)cc4)nn3)cc(=O)c2c1` (single isomer, unassigned) [Example 124, 2-[1-[2-[1-(4-Cyanophenyl)triazol-4-yl]-6-methyl-4-oxo-chromen-8-yl]ethylamino]benzoic acid, Isomer 2,2,2,2-trifluoroacetic acid] were, in that order, 1000 to 5000 nM, under 500 nM and 50 to 100 nM.
Take `Cc1cc(C(C)Nc2ccccc2C(=O)O)c2oc(-c3cncc(C#N)c3)c(C)c(=O)c2c1` (single isomer, unassigned) [Example 125, 2-[1-[2-(5-Cyano-3-pyridyl)-3,6-dimethyl-4-oxo-chromen-8-yl]ethylamino]benzoic acid, Isomer 1,2,2,2-trifluoroacetic acid]: the IC50 in test [1] was 500 to 1000 nM; in test [2], under 500 nM; in test [3] it was under 50 nM.
For `Cc1cc(C(C)Nc2ccccc2C(=O)O)c2oc(-c3cnc(-c4ccccc4)s3)c(C)c(=O)c2c1` (single isomer, unassigned) [Example 126, 2-[1-[3,6-Dimethyl-4-oxo-2-(2-phenylthiazol-5-yl)chromen-8-yl]ethylamino]benzoic acid, Isomer 1,2,2,2-trifluoroacetic acid], in that order: under 500 nM, under 500 nM and 50 to 100 nM.

For the origin of these results see US20230014445A1, “ALLOSTERIC CHROMENONE INHIBITORS OF PHOSPHOINOSITIDE 3-KINASE (PI3K) FOR THE TREATMENT OF DISEASE” (Petra Pharma Corporation, priority 2021, published 2023).
